Assay results published in article PMC8881077 (Journal of Enzyme Inhibition and Medicinal Chemistry, 2022).

Tests used:
[1] = Trolox as standard
Experimental: The skeleton compounds naringenin and apigenin were also evaluated for comparison purposes, and vitamin E analogue Trolox was used as a standard.
The antioxidant potency of target compounds was tested using an oxygen radical absorbance capacity fluorescein (ORAC-FL) assay.

[2] = biological target: T1, ratAChE (Rattus norvegicus, UniProt P37136); assay: biochemical; settings: for SI: Selectivity Index = IC50 (BuChE)/IC50 (AChE), rat enzymes; for IC50: from 5% rat cortex homogenate, read-out: IC50 ± SD ratAChE
T1 construct: AChE from 5% rat cortex homogenate or human erythrocytes (Sigma Co.); from tissue; host or cells: 5% rat cortex homogenate
T1 sequence (P37136 32-614): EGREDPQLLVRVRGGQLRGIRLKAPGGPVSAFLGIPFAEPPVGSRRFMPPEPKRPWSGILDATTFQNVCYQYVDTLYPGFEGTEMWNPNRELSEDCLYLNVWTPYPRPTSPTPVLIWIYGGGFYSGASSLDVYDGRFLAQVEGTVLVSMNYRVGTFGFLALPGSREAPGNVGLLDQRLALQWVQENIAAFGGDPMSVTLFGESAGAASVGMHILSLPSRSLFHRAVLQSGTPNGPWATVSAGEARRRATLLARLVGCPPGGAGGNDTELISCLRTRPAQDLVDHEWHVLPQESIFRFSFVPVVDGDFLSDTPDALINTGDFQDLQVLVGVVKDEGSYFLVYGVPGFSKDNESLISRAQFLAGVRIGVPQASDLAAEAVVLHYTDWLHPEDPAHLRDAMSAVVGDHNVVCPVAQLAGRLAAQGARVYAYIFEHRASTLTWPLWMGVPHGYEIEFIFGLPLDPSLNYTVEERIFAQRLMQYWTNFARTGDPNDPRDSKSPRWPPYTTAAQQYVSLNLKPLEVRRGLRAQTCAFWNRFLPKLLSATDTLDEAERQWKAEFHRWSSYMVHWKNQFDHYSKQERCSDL
Experimental: (§1) The AChE and BuChE inhibitory activities of the synthesised compounds were evaluated using the Ellman assay with slight modification. AChE from 5% rat cortex homogenate or human erythrocytes (Sigma Co.). BuChE from rat serum or human serum (Sigma Co.).

[3] = biological target: T2, ratBuChE (Rattus norvegicus, UniProt Q9JKC1); assay: ratBuChE inhibition, modified Ellman's method; format: biochemical
T2 construct: BuChE from rat serum or human serum (Sigma Co.); from tissue; host or cells: rat serum
T2 sequence (Q9JKC1 24-597): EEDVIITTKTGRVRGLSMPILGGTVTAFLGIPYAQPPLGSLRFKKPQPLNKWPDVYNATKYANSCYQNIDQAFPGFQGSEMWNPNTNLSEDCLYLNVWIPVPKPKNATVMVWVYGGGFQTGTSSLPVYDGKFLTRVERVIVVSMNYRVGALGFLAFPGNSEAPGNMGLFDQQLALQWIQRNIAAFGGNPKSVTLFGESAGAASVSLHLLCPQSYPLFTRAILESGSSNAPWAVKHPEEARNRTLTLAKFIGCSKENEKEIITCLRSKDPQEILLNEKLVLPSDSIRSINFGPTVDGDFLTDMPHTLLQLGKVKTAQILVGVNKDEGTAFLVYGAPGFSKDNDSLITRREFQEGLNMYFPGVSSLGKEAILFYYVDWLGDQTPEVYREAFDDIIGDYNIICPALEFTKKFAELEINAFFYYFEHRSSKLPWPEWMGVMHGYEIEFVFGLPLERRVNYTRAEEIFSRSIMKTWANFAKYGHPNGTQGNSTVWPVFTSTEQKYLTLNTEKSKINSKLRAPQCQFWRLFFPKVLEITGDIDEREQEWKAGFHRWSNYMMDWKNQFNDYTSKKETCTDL
Experimental: as §1

Compound	ORAC [1]	SI [2]	IC50 [2]	IC50 [3]
CCN(CCCCCCCCCCOc1cc(O)c2c(c1)OC(c1ccc(O)cc1)CC2=O)Cc1ccccc1 (stereo not drawn) [Compound 5i, 7-((10-(benzyl(ethyl)amino)decyl)oxy)-5-hydroxy-2–(4-hydroxyphenyl)chroman-4-one]	2.1 ± 0.04 μM of Trolox equivalent/μM of tested compound	3.0	4.9 ± 0.16 µM	14.7 ± 0.62 µM
O=C1CC(c2ccc(OCCCCN3CCc4ccccc4C3)cc2)Oc2cc(OCCCCN3CCc4ccccc4C3)cc(O)c21 (stereo not drawn) [Compound 7f, 7–(4-(3,4-dihydroisoquinolin-2(1H)-yl)butoxy)-2–(4-(4–(3,4-dihydroisoquinolin-2(1H)-yl)butoxy)phenyl)-5-hydroxychroman-4-one]	1.1 ± 0.03 μM of Trolox equivalent/μM of tested compound	3.8	5.4 ± 0.16 µM	20.7 ± 0.55 µM
O=c1cc(-c2ccc(OCCCCN3CCc4ccccc4C3)cc2)oc2cc(OCCCCN3CCc4ccccc4C3)cc(O)c12 [Compound 10g, 7–(4-(3,4-dihydroisoquinolin-2(1H)-yl)butoxy)-2–(4-(4–(3,4-dihydroisoquinolin-2(1H)-yl)butoxy)phenyl)-5-hydroxy-4H-chromen-4-one]	1.2 ± 0.03 μM of Trolox equivalent/μM of tested compound	3.8	4.6 ± 0.21 µM	17.4 ± 0.35 µM
O=c1cc(-c2ccc(OCCCN3CCC(CCCc4ccccc4)CC3)cc2)oc2cc(OCCCN3CCC(CCCc4ccccc4)CC3)cc(O)c12 [Compound 10e, 5-hydroxy-7–(3-(4–(3-phenylpropyl)piperidin-1-yl)propoxy)-2–(4-(3–(4–(3-phenylpropyl)piperidin-1-yl)propoxy)phenyl)-4H-chromen-4-one]	1.1 ± 0.02 μM of Trolox equivalent/μM of tested compound		7.9 ± 0.26 µM	13.8 ± 0.43 µM
O=c1cc(-c2ccc(OCCCN3CCC(c4ccccc4)CC3)cc2)oc2cc(OCCCN3CCC(c4ccccc4)CC3)cc(O)c12 [Compound 10d, 5-hydroxy-7–(3-(4-phenylpiperidin-1-yl)propoxy)-2–(4-(3–(4-phenylpiperidin-1-yl)propoxy)phenyl)-4H-chromen-4-one]	1.1 ± 0.02 μM of Trolox equivalent/μM of tested compound	2.4	6.4 ± 0.22 µM	15.1 ± 0.49 µM
CCN(CCCCOc1ccc(C2CC(=O)c3c(O)cc(OCCCCN(CC)Cc4ccccc4)cc3O2)cc1)Cc1ccccc1 (stereo not drawn) [Compound 7g]	1.2 ± 0.04 μM of Trolox equivalent/μM of tested compound	11.2	1.4 ± 0.08 µM	15.7 ± 0.29 µM
O=c1cc(-c2ccc(OCCCCCCN3CCc4ccccc4C3)cc2)oc2cc(OCCCCCCN3CCc4ccccc4C3)cc(O)c12 [Compound 10q, 7-((6–(3,4-dihydroisoquinolin-2(1H)-yl)hexyl)oxy)-2–(4-((6–(3,4-dihydroisoquinolin-2(1H)-yl)hexyl)oxy)phenyl)-5-hydroxy-4H-chromen-4-one]	1.0 ± 0.02 μM of Trolox equivalent/μM of tested compound	2.9	4.2 ± 0.15 µM	12.2 ± 0.28 µM
CCN(CCCCCCOc1cc(O)c2c(c1)OC(c1ccc(O)cc1)CC2=O)Cc1ccccc1 (stereo not drawn) [Compound 5h, 7-((6-(benzyl(ethyl)amino)hexyl)oxy)-5-hydroxy-2–(4-hydroxyphenyl)chroman-4-one]	2.3 ± 0.03 μM of Trolox equivalent/μM of tested compound	4.7	3.3 ± 0.09 µM	15.5 ± 0.52 µM
CCN(CCCOc1ccc(C2CC(=O)c3c(O)cc(OCCCN(CC)Cc4ccccc4)cc3O2)cc1)Cc1ccccc1 (stereo not drawn) [Compound 7b, 7–(3-(benzyl(ethyl)amino)propoxy)-2–(4-(3-(benzyl(ethyl)amino)propoxy)phenyl)-5-hydroxychroman-4-one]	1.2 ± 0.04 μM of Trolox equivalent/μM of tested compound	2.5	7.4 ± 0.29 µM	18.7 ± 0.37 µM
CC1CC(C)CN(CCCCCCOc2ccc(-c3cc(=O)c4c(O)cc(OCCCCCCN5CC(C)CC(C)C5)cc4o3)cc2)C1 (stereo not drawn) [Compound 10v, 7-((6–(3,5-dimethylpiperidin-1-yl)hexyl)oxy)-2–(4-((6–(3,5-dimethylpiperidin-1-yl)hexyl)oxy)phenyl)-5-hydroxy-4H-chromen-4-one]	1.3 ± 0.03 μM of Trolox equivalent/μM of tested compound	1.8	8.1 ± 0.49 µM	14.8 ± 0.29 µM
O=c1cc(-c2ccc(OCCCN3CCc4ccccc4C3)cc2)oc2cc(OCCCN3CCc4ccccc4C3)cc(O)c12 [Compound 10a, 7–(3-(3,4-dihydroisoquinolin-2(1H)-yl)propoxy)-2–(4-(3–(3,4-dihydroisoquinolin-2(1H)-yl)propoxy)phenyl)-5-hydroxy-4H-chromen-4-one]	1.1 ± 0.01 μM of Trolox equivalent/μM of tested compound	2.1	8.1 ± 0.27 µM	16.8 ± 0.36 µM
O=C1CC(c2ccc(OCCCCN3CCC(Cc4ccccc4)CC3)cc2)Oc2cc(OCCCCN3CCC(Cc4ccccc4)CC3)cc(O)c21 (stereo not drawn) [Compound 7j]	1.1 ± 0.03 μM of Trolox equivalent/μM of tested compound	11.2	1.3 µM	
O=C1CC(c2ccc(O)cc2)Oc2cc(OCCCCN3CCCCC3)cc(O)c21 (stereo not drawn) [Compound 5a, 5-hydroxy-2–(4-hydroxyphenyl)-7–(4-(piperidin-1-yl)butoxy)chroman-4-one]	2.2 ± 0.03 μM of Trolox equivalent/μM of tested compound	3.1	6.7 ± 0.31 µM	20.9 ± 0.68 µM
CC1CC(C)CN(CCCOc2ccc(-c3cc(=O)c4c(O)cc(OCCCN5CC(C)CC(C)C5)cc4o3)cc2)C1 (stereo not drawn) [Compound 10f, 7–(3-(3,5-dimethylpiperidin-1-yl)propoxy)-2–(4-(3–(3,5-dimethylpiperidin-1-yl)propoxy)phenyl)-5-hydroxy-4H-chromen-4-one]	1.0 ± 0.04 μM of Trolox equivalent/μM of tested compound	1.9	8.6 ± 0.33 µM	16.7 ± 0.52 µM
O=C1CC(c2ccc(OCCCN3CCC(c4ccccc4)CC3)cc2)Oc2cc(OCCCN3CCC(c4ccccc4)CC3)cc(O)c21 (stereo not drawn) [Compound 7d, 5-hydroxy-7–(3-(4-phenylpiperidin-1-yl)propoxy)-2–(4-(3–(4-phenylpiperidin-1-yl)propoxy)phenyl)chroman-4-one]	1.0 ± 0.03 μM of Trolox equivalent/μM of tested compound	2.2	9.3 ± 0.37 µM	20.3 ± 0.26 µM
O=C1CC(c2ccc(O)cc2)Oc2cc(OCCCCN3CCc4ccccc4C3)cc(O)c21 (stereo not drawn) [Compound 5b, 7–(4-(3,4-dihydroisoquinolin-2(1H)-yl)butoxy)-5-hydroxy-2–(4-hydroxyphenyl)chroman-4-one]	2.1 ± 0.04 μM of Trolox equivalent/μM of tested compound	3.0	5.8 ± 0.19 µM	17.4 ± 0.52 µM
CCN(CCCCOc1cc(O)c2c(c1)OC(c1ccc(O)cc1)CC2=O)Cc1ccccc1OC (stereo not drawn) [Compound 5d, 7–(4-(ethyl(2-methoxybenzyl)amino)butoxy)-5-hydroxy-2–(4-hydroxyphenyl)chroman-4-one]	2.2 ± 0.02 μM of Trolox equivalent/μM of tested compound	9.1	2 ± 0.46 µM	18.1 ± 0.56 µM
O=c1cc(-c2ccc(OCCCCCN3CCC(c4ccccc4)CC3)cc2)oc2cc(OCCCCCN3CCC(c4ccccc4)CC3)cc(O)c12 [Compound 10n, 5-hydroxy-7-((5–(4-phenylpiperidin-1-yl)pentyl)oxy)-2–(4-((5–(4-phenylpiperidin-1-yl)pentyl)oxy)phenyl)-4H-chromen-4-one]	1.1 ± 0.04 μM of Trolox equivalent/μM of tested compound	4.9	3.6 ± 0.11 µM	17.9 ± 0.46 µM
O=C1CC(c2ccc(OCCCCN3CCN(Cc4ccccc4)CC3)cc2)Oc2cc(OCCCCN3CCN(Cc4ccccc4)CC3)cc(O)c21 (stereo not drawn) [Compound 7i, 7–(4-(4-benzylpiperazin-1-yl)butoxy)-2–(4–(4-(4-benzylpiperazin-1-yl)butoxy)phenyl)-5-hydroxychroman-4-one]	1.4 ± 0.03 μM of Trolox equivalent/μM of tested compound	2.0	6.1 ± 0.21 µM	12.3 ± 0.16 µM
CCN1CCN(CCCOc2ccc(C3CC(=O)c4c(O)cc(OCCCN5CCN(CC)CC5)cc4O3)cc2)CC1 (stereo not drawn) [Compound 7e, 7–(3-(4-ethylpiperazin-1-yl)propoxy)-2–(4-(3–(4-ethylpiperazin-1-yl)propoxy)phenyl)-5-hydroxychroman-4-one]	1.5 ± 0.02 μM of Trolox equivalent/μM of tested compound	1.9	8.2 ± 0.47 µM	15.8 ± 0.62 µM
O=c1cc(-c2ccc(OCCCCN3CCN(Cc4ccccc4)CC3)cc2)oc2cc(OCCCCN3CCN(Cc4ccccc4)CC3)cc(O)c12 [Compound 10i, 7–(4-(4-Benzylpiperazin-1-yl)butoxy)-2–(4–(4-(4-benzylpiperazin-1-yl)butoxy)phenyl)-5-hydroxy-4H-chromen-4-one]	1.5 ± 0.02 μM of Trolox equivalent/μM of tested compound		6.9 ± 0.14 µM	10.3 ± 0.19 µM
